According to ChEMBL document CHEMBL1201862, “PubChem BioAssay data set” (2004):
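Dose response: 5 concentrations. Exposure: 48 h. Format: 96-well plates. Endpoint: linear interpolation; highest concentration if not reached. GI50 marks 50% less growth.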 Active and inactive are the calls of the source. Rule as the data show it: active = GI50 up to about 1.1 µM and inactive = higher.

What was measured:
Assay in all cases: growth of human tumour cells (NCI), 48 h
[1] = system: 786-0
[2] = system: A498
[3] = system: A549
[4] = system: ACHN
[5] = system: CCRF-CEM
[6] = system: DLD-1
[7] = system: DMS-114
[8] = system: EKVX
[9] = system: HCC 2998
[10] = system: HCT-116
[11] = system: HCT-15
[12] = system: HL-60
[13] = system: HOP-18
[14] = system: HOP-62
[15] = system: HT-29
[16] = system: IGROV-1
[17] = system: K562
[18] = system: KM-20L2
[19] = system: KM12
[20] = system: LOX IMVI
[21] = system: LXFL 529
[22] = system: M14
[23] = system: M19-MEL
[24] = system: MOLT-4
[25] = system: Malme-3M
[26] = system: NCI-H226
[27] = system: NCI-H23
[28] = system: NCI-H460
[29] = system: OVCAR-3
[30] = system: OVCAR-4
[31] = system: OVCAR-5
[32] = system: OVCAR-8
[33] = system: RPMI-8226
[34] = system: RXF 393
[35] = system: RXF 631
[36] = system: SF-268
[37] = system: SF-295
[38] = system: SF-539
[39] = system: SK-MEL-28
[40] = system: SK-OV-3
[41] = system: SN12C
[42] = system: SNB-19
[43] = system: SNB-75
[44] = system: SNB-78
[45] = system: SR
[46] = system: SW-620
[47] = system: TK-10
[48] = system: U-251
[49] = system: UACC-257
[50] = system: UACC-62
[51] = system: UO-31
[52] = system: XF498
[53] = system: CAKI-1
[54] = system: COLO 205
[55] = system: HOP-92
[56] = system: NCI-H522
[57] = system: SK-MEL-2
[58] = system: SK-MEL-5

Question: How did the GI50 [1] turn out when `COC(=O)C(c1n[nH]c2ccccc12)C(C(=O)OC)c1n[nH]c2ccccc12` (stereo not drawn) was run?
Answer: Its GI50 is 44.9 µM (inactive).

Question: What about the GI50 [2] of the same compound?
Answer: The GI50 was > 100 µM (inactive).

Question: What about the GI50 [3] of the same compound?
Answer: Its GI50 is > 100 µM (inactive).

Question: And the GI50 [4]?
Answer: Its GI50 is 49.4 µM (inactive).

Question: And the GI50 [5]?
Answer: The GI50 was 24.5 µM (inactive).

Question: And the GI50 [6]?
Answer: The GI50 was 36.3 µM (inactive).

Question: And the GI50 [7]?
Answer: Its GI50 is 29.4 µM (inactive).

Question: What about the GI50 [8] of the same compound?
Answer: The GI50 was > 100 µM (inactive).

Question: And the GI50 [9]?
Answer: The GI50 was > 100 µM (inactive).

Question: And the GI50 [10]?
Answer: Its GI50 is 41.4 µM (inactive).

Question: And the GI50 [11]?
Answer: Its GI50 is > 100 µM.

Question: What about the GI50 [12] of the same compound?
Answer: Its GI50 is 16 µM (inactive).

Question: And the GI50 [13]?
Answer: Its GI50 is 59.2 µM (inactive).

Question: And the GI50 [14]?
Answer: Its GI50 is > 100 µM (inactive).

Question: And the GI50 [15]?
Answer: The GI50 was 64.4 µM (inactive).

Question: And the GI50 [16]?
Answer: Its GI50 is > 100 µM (inactive).

Question: What about the GI50 [17] of the same compound?
Answer: The GI50 was 28 µM (inactive).

Question: What about the GI50 [18] of the same compound?
Answer: Its GI50 is > 100 µM (inactive).

Question: What about the GI50 [19] of the same compound?
Answer: Its GI50 is > 100 µM (inactive).

Question: What about the GI50 [20] of the same compound?
Answer: Its GI50 is 68.2 µM (inactive).

Question: What about the GI50 [21] of the same compound?
Answer: Its GI50 is 26.2 µM (inactive).

Question: And the GI50 [22]?
Answer: The GI50 was 32.1 µM (inactive).

Question: What about the GI50 [23] of the same compound?
Answer: Its GI50 is > 100 µM (inactive).

Question: What about the GI50 [24] of the same compound?
Answer: Its GI50 is 22.7 µM (inactive).

Question: And the GI50 [25]?
Answer: Its GI50 is 42.7 µM (inactive).

Question: And the GI50 [26]?
Answer: Its GI50 is > 100 µM (inactive).

Question: And the GI50 [27]?
Answer: Its GI50 is 30.9 µM (inactive).

Question: What about the GI50 [28] of the same compound?
Answer: Its GI50 is 58.3 µM (inactive).

Question: What about the GI50 [29] of the same compound?
Answer: Its GI50 is 41.8 µM (inactive).

Question: What about the GI50 [30] of the same compound?
Answer: Its GI50 is 18.8 µM (inactive).

Question: What about the GI50 [31] of the same compound?
Answer: The GI50 was > 100 µM (inactive).

Question: And the GI50 [32]?
Answer: Its GI50 is 24.8 µM (inactive).

Question: What about the GI50 [33] of the same compound?
Answer: Its GI50 is 13.5 µM (inactive).

Question: What about the GI50 [34] of the same compound?
Answer: Its GI50 is 24.9 µM (inactive).

Question: And the GI50 [35]?
Answer: The GI50 was > 100 µM (inactive).

Question: What about the GI50 [36] of the same compound?
Answer: The GI50 was > 100 µM (inactive).

Question: And the GI50 [37]?
Answer: Its GI50 is > 100 µM (inactive).

Question: And the GI50 [38]?
Answer: Its GI50 is 17 µM (inactive).

Question: What about the GI50 [39] of the same compound?
Answer: The GI50 was 41.7 µM (inactive).

Question: What about the GI50 [40] of the same compound?
Answer: The GI50 was > 100 µM (inactive).

Question: And the GI50 [41]?
Answer: The GI50 was 31.1 µM (inactive).

Question: And the GI50 [42]?
Answer: The GI50 was > 100 µM (inactive).

Question: And the GI50 [43]?
Answer: The GI50 was 50.1 µM (inactive).

Question: And the GI50 [44]?
Answer: The GI50 was 38.1 µM (inactive).

Question: And the GI50 [45]?
Answer: Its GI50 is 30.4 µM (inactive).

Question: And the GI50 [46]?
Answer: Its GI50 is 18.3 µM (inactive).

Question: What about the GI50 [47] of the same compound?
Answer: Its GI50 is > 100 µM (inactive).

Question: And the GI50 [48]?
Answer: Its GI50 is > 100 µM (inactive).

Question: And the GI50 [49]?
Answer: Its GI50 is 54.7 µM (inactive).

Question: And the GI50 [50]?
Answer: Its GI50 is 61.1 µM (inactive).

Question: What about the GI50 [51] of the same compound?
Answer: Its GI50 is > 100 µM (inactive).

Question: What about the GI50 [52] of the same compound?
Answer: The GI50 was 41.8 µM (inactive).

Question: How did the GI50 [1] turn out when `C=CCONC(=O)c1ccc(Cl)cc1` was run?
Answer: Its GI50 is > 100 µM (inactive).

Question: What about the GI50 [2] of the same compound?
Answer: Its GI50 is > 100 µM (inactive).

Question: What about the GI50 [3] of the same compound?
Answer: The GI50 was > 100 µM (inactive).

Question: And the GI50 [4]?
Answer: Its GI50 is > 100 µM (inactive).

Question: And the GI50 [53]?
Answer: The GI50 was > 100 µM (inactive).

Question: And the GI50 [5]?
Answer: The GI50 was > 100 µM (inactive).

Question: What about the GI50 [54] of the same compound?
Answer: The GI50 was > 100 µM (inactive).

Question: And the GI50 [6]?
Answer: Its GI50 is > 100 µM (inactive).

Question: What about the GI50 [7] of the same compound?
Answer: Its GI50 is > 100 µM (inactive).

Question: And the GI50 [8]?
Answer: Its GI50 is > 100 µM (inactive).

Question: And the GI50 [9]?
Answer: The GI50 was > 100 µM (inactive).

Question: And the GI50 [10]?
Answer: The GI50 was > 100 µM (inactive).

Question: What about the GI50 [11] of the same compound?
Answer: Its GI50 is > 100 µM.

Question: And the GI50 [12]?
Answer: The GI50 was > 100 µM (inactive).

Question: What about the GI50 [13] of the same compound?
Answer: The GI50 was > 100 µM (inactive).

Question: And the GI50 [14]?
Answer: The GI50 was > 100 µM (inactive).

Question: What about the GI50 [55] of the same compound?
Answer: The GI50 was > 100 µM (inactive).

Question: What about the GI50 [15] of the same compound?
Answer: The GI50 was > 100 µM (inactive).

Question: And the GI50 [16]?
Answer: The GI50 was > 100 µM (inactive).

Question: What about the GI50 [17] of the same compound?
Answer: Its GI50 is > 100 µM (inactive).

Question: And the GI50 [18]?
Answer: Its GI50 is > 100 µM (inactive).

Question: What about the GI50 [19] of the same compound?
Answer: The GI50 was > 100 µM (inactive).

Question: And the GI50 [20]?
Answer: The GI50 was > 100 µM (inactive).

Question: What about the GI50 [21] of the same compound?
Answer: The GI50 was > 100 µM (inactive).

Question: What about the GI50 [22] of the same compound?
Answer: Its GI50 is > 100 µM (inactive).

Question: And the GI50 [23]?
Answer: Its GI50 is > 100 µM (inactive).

Question: And the GI50 [24]?
Answer: Its GI50 is > 100 µM (inactive).

Question: And the GI50 [25]?
Answer: The GI50 was > 100 µM (inactive).

Question: And the GI50 [27]?
Answer: Its GI50 is > 100 µM (inactive).

Question: What about the GI50 [28] of the same compound?
Answer: The GI50 was > 100 µM (inactive).

Question: What about the GI50 [56] of the same compound?
Answer: The GI50 was > 100 µM (inactive).

Question: And the GI50 [30]?
Answer: The GI50 was > 100 µM (inactive).

Question: What about the GI50 [31] of the same compound?
Answer: The GI50 was > 100 µM (inactive).

Question: What about the GI50 [32] of the same compound?
Answer: Its GI50 is > 100 µM (inactive).

Question: What about the GI50 [33] of the same compound?
Answer: Its GI50 is > 100 µM (inactive).

Question: What about the GI50 [34] of the same compound?
Answer: The GI50 was > 100 µM (inactive).

Question: What about the GI50 [35] of the same compound?
Answer: The GI50 was > 100 µM (inactive).

Question: And the GI50 [36]?
Answer: The GI50 was > 100 µM (inactive).

Question: What about the GI50 [37] of the same compound?
Answer: Its GI50 is > 100 µM (inactive).

Question: And the GI50 [38]?
Answer: The GI50 was > 100 µM (inactive).

Question: And the GI50 [39]?
Answer: The GI50 was > 100 µM (inactive).

Question: And the GI50 [57]?
Answer: Its GI50 is > 100 µM (inactive).

Question: And the GI50 [58]?
Answer: The GI50 was > 100 µM (inactive).

Question: What about the GI50 [40] of the same compound?
Answer: Its GI50 is > 100 µM (inactive).

Question: And the GI50 [41]?
Answer: The GI50 was > 100 µM (inactive).

Question: What about the GI50 [42] of the same compound?
Answer: Its GI50 is > 100 µM (inactive).

Question: What about the GI50 [43] of the same compound?
Answer: Its GI50 is 84.1 µM (inactive).

Question: And the GI50 [44]?
Answer: The GI50 was > 100 µM (inactive).

Question: And the GI50 [45]?
Answer: The GI50 was > 100 µM (inactive).

Question: And the GI50 [46]?
Answer: The GI50 was > 100 µM (inactive).

Question: And the GI50 [47]?
Answer: Its GI50 is > 100 µM (inactive).

Question: What about the GI50 [48] of the same compound?
Answer: The GI50 was > 100 µM (inactive).

Question: What about the GI50 [49] of the same compound?
Answer: The GI50 was > 100 µM (inactive).

Question: What about the GI50 [50] of the same compound?
Answer: The GI50 was > 100 µM (inactive).

Question: And the GI50 [51]?
Answer: Its GI50 is > 100 µM (inactive).

Question: What about the GI50 [52] of the same compound?
Answer: Its GI50 is > 100 µM (inactive).
